{
  "source": "patent US20260345798A1",
  "about": "“COMPOUNDS AND METHODS OF USE THEREOF” (Virginia Commonwealth University, priority 2023, published 2026)",
  "key": {"[1]": {"system": "T cell, MDSC and Treg populations", "test": "Flow cytometry of immune cells in lungs of B16-injected mice", "type": "in vivo, mouse", "details": "30 mg/kg I.P., 6 injections", "source_text": "FIG. 6B is a series of histograms showing the number of nodules/lung, T cell populations (CD8^+IFN-γ^+) and myeloid-derived suppressor cells (MDSCs) in the lungs of the treatment groups described in FIG. 6A, as measured by flow cytometry. *: Statistical significance (p<0.05);**: Statistical significance (p<0.01);***: Statistical significance (p<0.001). ****: Statistical significance (p<0.0001).\nFIG. 15 is a histogram showing the comparative effect of DMSO and IVMT-Rx-3 on Treg populations, as measured by flow cytometry. 5×10^5 B16 cells were injected intravenously in C57BL/6 mice, and the mice were treated with DMSO control or IVMT-Rx-3 (intraperitoneal injection 30 mg/kg, 3× in a week, 6 injections in total). MDSC (Cd11^+Gr1^+) and Treg populations (CD4^+CD25^+[…]) in the lungs were measured by flow cytometry.\nSingle cells were isolated from lungs by digestion with collagenase D and DNAse I. Cells were stained with the corresponding antibodies and fluorescence signals were measured with a BD Fortessa flow cytometer (BD Biosciences, San Jose, CA). Data were analyzed further with FACs DIVA software (BD Biosciences, San Jose, CA) (18). The antibodies used in this study were CD3, Gr1, CD11b, IFN-γ, CD45, CD8 (Biolegend, San Diego, CA, USA). CD4 (BD Biosciences, San Jose, CA, USA), CD25, and FOXP3 (eBiosciences, CA, USA)."}, "IGFBP-2": {"system": "IGFBP-2", "test": "IGFBP-2 ELISA in conditioned media", "type": "cell-based, human", "details": "10, 25 or 50 μM, 24 hr", "method": "FIG. 5C is a series of histograms showing the amount of IGFBP-2 secreted from A-375, C8161.9, TPF-19-219, TPF-19-235, and TPF-16-238 cells treated with varying concentrations of IVMT-Rx-3, as measured by ELISA.\nIGFBP-2 levels in conditioned media were determined using an IGFBP-2 ELISA kit (R&D systems, USA) according to the manufacturer's instructions (9). Each sample was repeated three times, and represented graphically with GraphPad Prism software.\nInsulin Growth Factor Binding Protein-2 (IGFBP-2) has been found in higher levels in the serum of individuals with diverse types of pathological conditions and is very germane in the context of angiogenesis, tumor promotion and chemoresistance (33). Since Src activation is critical for IGFBP-2 induced angiogenesis, a potential suppressive function of IVMT-Rx-3 on IGFBP-2 expression levels was investigated (9). Melanoma cells were treated with different doses (10, 25 or 50 μM) of IVMT-Rx-3 for 24 hr. and levels of IGFBP-2 in the media were determined using ELISA (FIG. 5C). […] Blocking MDA-9/Syntenin expression inhibits the secretion of cytokines/growth factors in breast cancer resulting in the conversion of an immunosuppressive to immunostimulatory microenvironment (23). Accordingly, the level of specific melanoma metastasis-associated cytokines, e.g., IL-6, IL-10, IL-16, following treatment with IVMT-Rx-3 was analyzed. […]"}},
  "note": "Residues, ends and D or L forms follow the SMILES beside them.",
  "data": [
    {"smiles": "Cc1cc(NC(=O)c2nc3[nH]c4c(c(=O)n3n2)CCC4)c(C)cc1NC(=O)CCOCCC(=O)N[C@H](C(=O)N[C@@H](CC(N)=O)C(=O)N[C@@H](CCC(=O)O)C(=O)N[C@@H](Cc1ccc(O)cc1)C(=O)N[C@@H](Cc1ccc(O)cc1)C(=O)N[C@H](C(=O)O)C(C)C)[C@@H](C)O", "note": "[IVMT-Rx-3] (HELM PEPTIDE1{[Cc1cc(NC(=O)c2nc3[nH]c4c(c(=O)n3n2)CCC4)c(C)cc1NC(=O)CCOCCC(=O)[*:2]].T.N.E.Y.Y.V}$$$$V2.0)", "values": [
      {"measurement": "IFN-γ-producing CD8+ T cell populations", "setting": "[1]", "value": "significant increase"},
      {"measurement": "MDSC populations", "setting": "[1]", "value": "suppression of MDSCs"},
      {"measurement": "Treg population", "setting": "[1]; 5×10^5 B16 cells", "value": "no significant changes"},
      {"measurement": "IGFBP-2 in tumor-derived media", "setting": "IGFBP-2", "value": "dose-dependent downregulation"}
    ]}
  ]
}
